Measured values from US9617214B2, “Compounds for cognitive enhancement and methods of use thereof” (The Translational Genomics Research Institute, priority 2013, dated 2017).
“Also recorded” adds a separate entry of the source. Like-named read-outs stand apart in the source and are kept apart here.

How the values were obtained:
ROCK1 [1] = molecular target: T1, ROCK1 (Homo sapiens, UniProt Q13464); experiment: ROCK1 enzyme activity at 10 μM; format: biochemical; conditions: 10 μM compound
Protocol: (§1) Enzyme activity of ROCK1 and ROCK2 were studied at 10 μM to compare the inhibition activity of ROCK inhibitors. Table 2 summarizes the extent of inhibition of the compounds of the inventions.

H4-tau cells [2] = experiment: p-tau protein to total tau protein ratio in H4-tau cells at IC10 dosage, 96-hour time course, ELISA; format: cell-based, human; conditions: 96-hour time course, compared to vehicle (DMSO), two-sided t-test
Protocol: Thirteen different ROCK inhibitors were tested for their effect on the ratio of p-tau protein to total tau protein. […] Alamar Blue was used after cells were treated with the respective compounds at various dosages to determine the IC10 value. The compounds were applied to H4-tau cells over a 96-hour time course with 8 time points (at hours 12, 24, 36, 48, 60, 72, 84, and 96). At each time point, total cell protein was collected and p-tau protein and total tau protein was assessed using an enzyme-linked immunosorbent assay. The p-tau to total tau protein ratio at each time point for each drug was compared to the corresponding time point for cells treated with vehicle (DMSO) used to solubilize the respective compound.
Two-sided t-tests were used to determine significant changes in the p-tau protein to total tau protein ratio for each drug across the entire time course at each tested time point. Cells treated by drug were compared to cells treated to vehicle.

ROCK2 [3] = molecular target: T2, ROCK2 (Homo sapiens, UniProt O75116); experiment: ROCK2 enzyme activity at 10 μM; format: biochemical; conditions: 10 μM compound
Protocol: as §1

H4-tau cells [4] = experiment: Validation time course in H4-tau cells at IC50 (cell survival) dosage: p-tau and total tau protein by ELISA; format: cell-based, human; conditions: IC50 dosage for cell survival, over 96 hours; for concentration of total tau protein: FIG. 2; for concentration of p-tau protein: FIG. 3
Protocol: The time course was repeated using 4 biological replicates over 96 hours and 10 time points (at hours 0, 6, 12, 24, 36, 48, 60, 72, 84, and 96). Total cell protein was collected at each time point and ELISAs were used to measure p-tau protein and total tau protein.

ROCK1 [5] = molecular target: T1, ROCK1; experiment: IC50 value for ROCK1 activity; format: biochemical; conditions: ATP at Km (10 μM)
ROCK2 [6] = molecular target: T2, ROCK2; experiment: IC50 value for ROCK2 activity; format: biochemical; conditions: ATP at Km (10 μM)
Aβ42 = conditions: mouse model of AD; cited from earlier work
rats [7] = conditions: cited from earlier work
rats [8] = conditions: aged rats; cited from earlier work
[9] = Test 1, read-out: % enzyme activity at 10 μM ROCK1 Test 1
[10] = Test 2, read-out: % enzyme activity at 10 μM ROCK1 Test 2
[11] = Test 1, read-out: % enzyme activity at 10 μM ROCK2 Test 1
[12] = Test 2, read-out: % enzyme activity at 10 μM ROCK2 Test 2

T2 sequence (O75116 whole entry): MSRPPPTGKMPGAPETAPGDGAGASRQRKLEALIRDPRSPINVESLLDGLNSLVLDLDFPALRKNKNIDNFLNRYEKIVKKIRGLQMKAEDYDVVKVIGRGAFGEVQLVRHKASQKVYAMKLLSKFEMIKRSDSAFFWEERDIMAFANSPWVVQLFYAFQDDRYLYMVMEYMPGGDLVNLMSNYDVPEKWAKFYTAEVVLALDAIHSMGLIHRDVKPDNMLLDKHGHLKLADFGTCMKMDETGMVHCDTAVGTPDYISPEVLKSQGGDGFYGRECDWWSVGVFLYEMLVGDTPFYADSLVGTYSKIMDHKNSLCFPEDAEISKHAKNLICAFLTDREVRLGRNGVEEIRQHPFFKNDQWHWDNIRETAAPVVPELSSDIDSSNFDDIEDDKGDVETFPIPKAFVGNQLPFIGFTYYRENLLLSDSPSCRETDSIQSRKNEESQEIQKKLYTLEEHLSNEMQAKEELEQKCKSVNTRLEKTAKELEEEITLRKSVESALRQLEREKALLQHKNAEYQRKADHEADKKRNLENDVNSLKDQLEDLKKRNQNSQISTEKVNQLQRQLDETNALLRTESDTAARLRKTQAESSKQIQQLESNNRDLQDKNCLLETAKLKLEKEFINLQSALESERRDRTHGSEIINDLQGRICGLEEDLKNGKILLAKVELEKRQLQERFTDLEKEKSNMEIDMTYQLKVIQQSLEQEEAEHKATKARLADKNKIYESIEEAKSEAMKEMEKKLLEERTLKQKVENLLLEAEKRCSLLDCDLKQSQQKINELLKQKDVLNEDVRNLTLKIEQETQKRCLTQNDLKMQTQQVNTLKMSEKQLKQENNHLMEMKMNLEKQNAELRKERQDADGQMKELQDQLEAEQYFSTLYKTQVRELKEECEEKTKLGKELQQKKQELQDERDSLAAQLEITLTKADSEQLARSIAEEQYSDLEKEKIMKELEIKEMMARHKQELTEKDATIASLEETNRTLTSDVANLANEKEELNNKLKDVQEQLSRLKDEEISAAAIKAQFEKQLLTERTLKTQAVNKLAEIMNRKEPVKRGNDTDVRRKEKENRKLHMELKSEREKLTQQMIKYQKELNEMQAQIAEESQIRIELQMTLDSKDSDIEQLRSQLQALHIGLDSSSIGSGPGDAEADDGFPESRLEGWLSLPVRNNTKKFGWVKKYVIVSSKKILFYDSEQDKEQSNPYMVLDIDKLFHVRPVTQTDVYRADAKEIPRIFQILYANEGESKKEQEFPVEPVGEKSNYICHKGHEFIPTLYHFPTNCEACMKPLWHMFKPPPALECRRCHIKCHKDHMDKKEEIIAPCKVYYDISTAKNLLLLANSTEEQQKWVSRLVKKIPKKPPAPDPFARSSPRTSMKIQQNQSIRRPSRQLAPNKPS
T1 sequence (Q13464 whole entry): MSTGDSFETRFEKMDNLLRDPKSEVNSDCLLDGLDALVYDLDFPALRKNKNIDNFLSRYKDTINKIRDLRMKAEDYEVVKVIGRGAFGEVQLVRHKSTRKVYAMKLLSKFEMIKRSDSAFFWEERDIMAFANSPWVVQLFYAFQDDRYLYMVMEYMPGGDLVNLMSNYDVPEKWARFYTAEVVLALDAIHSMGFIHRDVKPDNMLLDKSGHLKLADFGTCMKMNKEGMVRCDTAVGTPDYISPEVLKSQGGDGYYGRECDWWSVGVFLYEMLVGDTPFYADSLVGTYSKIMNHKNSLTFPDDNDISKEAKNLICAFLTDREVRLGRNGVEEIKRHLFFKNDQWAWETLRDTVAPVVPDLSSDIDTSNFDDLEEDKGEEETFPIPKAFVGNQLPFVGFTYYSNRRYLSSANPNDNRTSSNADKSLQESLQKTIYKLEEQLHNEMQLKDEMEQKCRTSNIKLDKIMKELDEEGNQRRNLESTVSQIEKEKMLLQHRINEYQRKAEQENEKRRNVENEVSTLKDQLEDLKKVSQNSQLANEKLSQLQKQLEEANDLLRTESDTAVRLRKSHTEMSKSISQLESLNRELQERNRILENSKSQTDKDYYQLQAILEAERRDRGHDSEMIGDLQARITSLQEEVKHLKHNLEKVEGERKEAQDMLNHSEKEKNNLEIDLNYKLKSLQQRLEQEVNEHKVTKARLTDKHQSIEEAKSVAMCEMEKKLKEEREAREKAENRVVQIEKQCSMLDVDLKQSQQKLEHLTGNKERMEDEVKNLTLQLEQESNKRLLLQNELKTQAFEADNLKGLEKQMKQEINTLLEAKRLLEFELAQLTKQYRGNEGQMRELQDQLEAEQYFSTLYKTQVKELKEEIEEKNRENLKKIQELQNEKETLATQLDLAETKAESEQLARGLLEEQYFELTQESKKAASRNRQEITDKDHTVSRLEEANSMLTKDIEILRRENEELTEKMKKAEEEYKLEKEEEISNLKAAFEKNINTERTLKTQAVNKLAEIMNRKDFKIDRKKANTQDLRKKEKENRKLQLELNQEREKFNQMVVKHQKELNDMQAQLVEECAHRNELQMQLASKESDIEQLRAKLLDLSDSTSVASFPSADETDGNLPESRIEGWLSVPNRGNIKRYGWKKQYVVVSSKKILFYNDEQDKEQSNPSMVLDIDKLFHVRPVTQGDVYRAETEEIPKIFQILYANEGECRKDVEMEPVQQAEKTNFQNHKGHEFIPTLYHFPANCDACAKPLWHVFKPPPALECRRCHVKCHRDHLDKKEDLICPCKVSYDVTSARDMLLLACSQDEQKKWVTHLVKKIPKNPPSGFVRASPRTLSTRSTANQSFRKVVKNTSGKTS

SMILES | remaining activity at 10 µM (ROCK1 [1]; [9]) | remaining activity at 10 µM (ROCK1 [1]; [10]) | p-tau protein to total tau protein ratio (H4-tau cells [2]) | remaining activity at 10 µM (ROCK2 [3]; [11]) | remaining activity at 10 µM (ROCK2 [3]; [12]) | further results
O=C(Nc1ccc(-c2cn[nH]c2)cc1)C1COc2ccccc2C1 (stereo not shown) [Compound T299] | 0.97% | 2.38% | – | – | – | –
O=C(Nc1cccc(-c2ccncc2)c1)C1COc2ccccc2C1 (stereo not shown) [Compound T303] | 3.26% | 2.65% | significant decrease | 0.78% | 0.55% | –
O=S(=O)(c1cccc2cnccc12)N1CCCN(Cc2ccc(F)cc2)CC1 [Compound T306] | 6.75% | 6.94% | – | 3.85% | 3.62% | –
O=C(NCCc1cccc(Cl)c1)c1ccc(-c2ccncc2)cc1 [Compound T343] | 1.22% | 1.17% | significant decrease | 0.08% | 0.56% | p-tau protein to total tau protein ratio (H4-tau cells [4]; 4 biological replicates, FIG. 4): significant decrease; also recorded: decreased ratio; concentration of total tau protein (H4-tau cells [4]): lesser concentrations; concentration of p-tau protein (H4-tau cells [4]): lesser concentrations; IC50 (ROCK1 [5]; Test 1, read-out: IC50 (μM) ROCK1 Test 1): 0.0318 µM; IC50 (ROCK1 [5]; Test 2, read-out: IC50 (μM) ROCK1 Test 2): 0.0227 µM; IC50 (ROCK2 [6]; Test 1, read-out: IC50 (μM) ROCK2 Test 1): 0.0167 µM; IC50 (ROCK2 [6]; Test 2, read-out: IC50 (μM) ROCK2 Test 2): 0.0102 µM
CC(Cc1ccc(F)cc1)NC(=O)c1ccc(-c2ccncc2)cc1 (stereo not shown) [Compound T350] | – | – | significant decrease | – | – | –
CC(N)C1CCC(C(=O)Nc2ccncc2)CC1 (stereo not shown) [Compound Y27632, 4-(1-aminoethyl)-N-pyridin-4-yl-cyclohexane-1-carboxamide] | – | – | – | – | – | brain levels of Aβ42 (Aβ42): preferentially lowered; memory and learning (rats [7]; rats with ischemia): increased; hyperphosphorylation of the tau protein (rats [7]; rats, hyperphosphorylation due to ischemia): decreased; memory and learning (rats [7]; sham rats, no hyperphosphorylation of the tau protein): decreased
O=S(=O)(c1cccc2cnccc12)N1CCCNCC1 [Fasudil, 5-(1,4-diazepan-1-ylsulfonyl)isoquinoline, reference compound] | – | – | – | – | – | concentration of total tau protein (H4-tau cells [4]): lesser concentrations; concentration of p-tau protein (H4-tau cells [4]): lesser concentrations; learning and memory (rats [8]): increased
